Source: PubChem BioAssay AID1259407 (Chemical Carcinogenesis Research Information System (CCRIS), 2018)
Calls of active or inactive are those of the source. The rule behind the calls is not given here.

Test system: CCRIS mutagenicity, Ames/micronucleus/aberration tests
Test: CCRIS mutagenicity studies
[1] = Test System: AMES SALMONELLA TYPHIMURIUM, Strain/Indicator: TA98, Metabolic Activation: NONE, Method: STANDARD PLATE
[2] = Test System: AMES SALMONELLA TYPHIMURIUM, Strain/Indicator: TA100, Metabolic Activation: NONE, Method: STANDARD PLATE
[3] = Test System: AMES SALMONELLA TYPHIMURIUM, Strain/Indicator: TA98, Metabolic Activation: NONE, Method: PREINCUBATION
[4] = Test System: AMES SALMONELLA TYPHIMURIUM, Strain/Indicator: TA100, Metabolic Activation: NONE, Method: PREINCUBATION
[5] = Test System: AMES SALMONELLA TYPHIMURIUM, Strain/Indicator: TA104, Metabolic Activation: NONE, Method: PREINCUBATION
[6] = Test System: AMES SALMONELLA TYPHIMURIUM, Strain/Indicator: TA1535, Metabolic Activation: NONE, Method: PREINCUBATION
[7] = Test System: AMES SALMONELLA TYPHIMURIUM, Strain/Indicator: TA1535, Metabolic Activation: NONE, Method: STANDARD PLATE

O=[N+]([O-])c1ccc2ccc3cccc([N+](=O)[O-])c3c2c1
mutagenic call (Test System: AMES SALMONELLA TYPHIMURIUM, Strain/Indicator: TA98(1,8-DNP6), Metabolic Activation: NONE, Method: STANDARD PLATE): active; positive
mutagenic call (Test System: AMES SALMONELLA TYPHIMURIUM, Strain/Indicator: TA98(NR), Metabolic Activation: NONE, Method: STANDARD PLATE): active; positive
mutagenic call [1]: active; positive
mutagenic call [2]: active; positive
mutagenic call (Test System: AMES SALMONELLA TYPHIMURIUM, Strain/Indicator: YG1021, Metabolic Activation: NONE, Method: STANDARD PLATE): active; positive
mutagenic call (Test System: AMES SALMONELLA TYPHIMURIUM, Strain/Indicator: YG1024, Metabolic Activation: NONE, Method: STANDARD PLATE): active; positive
mutagenic call (Test System: AMES SALMONELLA TYPHIMURIUM, Strain/Indicator: YG1026, Metabolic Activation: NONE, Method: STANDARD PLATE): active; positive
mutagenic call (Test System: AMES SALMONELLA TYPHIMURIUM, Strain/Indicator: YG1029, Metabolic Activation: NONE, Method: STANDARD PLATE): active; positive

O=C(O)/C(Cl)=C(\CCl)C(Cl)Cl
mutagenic call [3]: active; positive
mutagenic call [4]: active; positive
mutagenic call [5]: active; positive

OCc1ccc(-c2nccc3c2[nH]c2ccccc23)o1
mutagenic call [4]: active; positive

CC(=O)NNc1ccc(CO)cc1
mutagenic call (Test System: AMES SALMONELLA TYPHIMURIUM, Strain/Indicator: TA104, Metabolic Activation: MUSHROOM TYROSINASE, Method: PREINCUBATION): active; positive
mutagenic call [5]: inactive; negative
mutagenic call (Test System: AMES SALMONELLA TYPHIMURIUM, Strain/Indicator: TA104, Metabolic Activation: RAT, LIVER, CYTOSOL AND MICROSOMES, AROCLOR 1254, NADPH, Method: PREINCUBATION): active; positive
mutagenic call (Test System: AMES SALMONELLA TYPHIMURIUM, Strain/Indicator: TA104, Metabolic Activation: RAT, LIVER, CYTOSOL AND MICROSOMES, AROCLOR 1254, Method: PREINCUBATION): inactive; negative
mutagenic call (Test System: AMES SALMONELLA TYPHIMURIUM, Strain/Indicator: TA104, Metabolic Activation: RAT, LIVER, CYTOSOL, AROCLOR 1254, Method: PREINCUBATION): inactive; negative
mutagenic call (Test System: AMES SALMONELLA TYPHIMURIUM, Strain/Indicator: TA104, Metabolic Activation: RAT, LIVER, MICROSOMES, AROCLOR 1254, NADPH, Method: PREINCUBATION): inactive; negative
mutagenic call [6]: inactive; negative
mutagenic call (Test System: AMES SALMONELLA TYPHIMURIUM, Strain/Indicator: TA1535, Metabolic Activation: RAT, LIVER, S-9, AROCLOR 1254, Method: PREINCUBATION): inactive; negative
mutagenic call (Test System: AMES SALMONELLA TYPHIMURIUM, Strain/Indicator: TA1537, Metabolic Activation: NONE, Method: PREINCUBATION): active; positive
mutagenic call (Test System: AMES SALMONELLA TYPHIMURIUM, Strain/Indicator: TA1537, Metabolic Activation: RAT, LIVER, S-9, AROCLOR 1254, Method: PREINCUBATION): inactive; negative

Cl/C=C(\Cl)C(Cl)Cl
mutagenic call [1]: active; positive
mutagenic call [2]: active; positive
mutagenic call (Test System: AMES SALMONELLA TYPHIMURIUM, Strain/Indicator: TA100, Metabolic Activation: RAT, LIVER, S-9, AROCLOR 1254, Method: STANDARD PLATE): active; positive
mutagenic call [7]: active; positive

CCCCCCCCCCCCCC(=O)ON(C(C)=O)c1ccc2c(c1)Cc1ccccc1-2
mutagenic call (Test System: UDS HUMAN FIBROBLASTS, Strain/Indicator: THY INCORP (NON-S-PHASE), Metabolic Activation: NONE, Method: AUTORADIOGRAPHY): active; positive

CCOC(=O)[C@@H](N)CS
mutagenic call (Test System: AMES SALMONELLA TYPHIMURIUM, Strain/Indicator: TA102, Metabolic Activation: NONE, Method: STANDARD PLATE): active; positive

Cc1cccc2cc3c(ccc4ccccc43)cc12
mutagenic call (Test System: AMES SALMONELLA TYPHIMURIUM, Strain/Indicator: TA100, Metabolic Activation: RAT, INTACT HEPATOCYTES, AROCLOR 1254, Method: PREINCUBATION): active; positive
mutagenic call (Test System: AMES SALMONELLA TYPHIMURIUM, Strain/Indicator: TA100, Metabolic Activation: RAT, NADPH-FORTIFIED HOMOGENIZED HEPATOCYTES, AROCLOR 1254, Method: PREINCUBATION): active; positive
mutagenic call (Test System: AMES SALMONELLA TYPHIMURIUM, Strain/Indicator: TA100, Metabolic Activation: RAT, SONICATED HEPATOCYTES, AROCLOR 1254, Method: PREINCUBATION): active; positive

Nc1cccc2cccc(N)c12
mutagenic call (Test System: AMES SALMONELLA TYPHIMURIUM, Strain/Indicator: TA98, Metabolic Activation: RAT LIVER, CYTOSOL, AROCLOR 1254, Method: STANDARD PLATE): inactive; negative
mutagenic call (Test System: AMES SALMONELLA TYPHIMURIUM, Strain/Indicator: TA98, Metabolic Activation: RAT LIVER, MICROSOMES, AROCLOR 1254, Method: STANDARD PLATE): active; positive

N#CC1=C(C#N)C(=O)C(Cl)=C(Cl)C1=O
mutagenic call [3]: inactive; negative
mutagenic call (Test System: AMES SALMONELLA TYPHIMURIUM, Strain/Indicator: TA98, Metabolic Activation: RAT, LIVER, S-9, PHENOBARBITAL AND 5,6-BENZOFLAVONE, Method: PREINCUBATION): inactive; negative
mutagenic call [4]: inactive; negative
mutagenic call (Test System: AMES SALMONELLA TYPHIMURIUM, Strain/Indicator: TA102, Metabolic Activation: NONE, Method: PREINCUBATION): inactive; negative
mutagenic call (Test System: AMES SALMONELLA TYPHIMURIUM, Strain/Indicator: TA102, Metabolic Activation: RAT, LIVER, S-9, PHENOBARBITAL AND 5,6-BENZOFLAVONE, Method: PREINCUBATION): inactive; negative
mutagenic call [5]: active; positive
mutagenic call (Test System: AMES SALMONELLA TYPHIMURIUM, Strain/Indicator: TA104, Metabolic Activation: RAT, LIVER, S-9, PHENOBARBITAL AND 5,6-BENZOFLAVONE, Method: PREINCUBATION): active; positive
mutagenic call (Test System: AMES SALMONELLA TYPHIMURIUM, Strain/Indicator: TA2637, Metabolic Activation: NONE, Method: PREINCUBATION): inactive; negative
mutagenic call (Test System: AMES SALMONELLA TYPHIMURIUM, Strain/Indicator: TA2637, Metabolic Activation: RAT, LIVER, S-9, PHENOBARBITAL AND 5,6-BENZOFLAVONE, Method: PREINCUBATION): active; positive

O=[N+]([O-])c1[nH]cnc1-c1ccccc1
mutagenic call [2]: active; positive

Nc1ccc(NC(=O)c2ccc(N)cc2)cc1
mutagenic call [3]: inactive; negative
mutagenic call (Test System: AMES SALMONELLA TYPHIMURIUM, Strain/Indicator: TA98, Metabolic Activation: RAT LIVER S-9, PHENOBARBITAL AND BETA-NAPHTHOFLAVONE, Method: PREINCUBATION): active; positive
mutagenic call [4]: inactive; negative
mutagenic call (Test System: AMES SALMONELLA TYPHIMURIUM, Strain/Indicator: TA100, Metabolic Activation: RAT LIVER S-9, PHENOBARBITAL AND BETA-NAPHTHOFLAVONE, Method: PREINCUBATION): inactive; negative
mutagenic call [6]: inactive; negative
mutagenic call (Test System: AMES SALMONELLA TYPHIMURIUM, Strain/Indicator: TA1535, Metabolic Activation: RAT LIVER S-9, PHENOBARBITAL AND BETA-NAPHTHOFLAVONE, Method: PREINCUBATION): inactive; negative
mutagenic call (Test System: AMES SALMONELLA TYPHIMURIUM, Strain/Indicator: TA1537, Metabolic Activation: RAT LIVER S-9, PHENOBARBITAL AND BETA-NAPHTHOFLAVONE, Method: PREINCUBATION): active; positive
mutagenic call (Test System: E.COLI, Strain/Indicator: WP2UVRA, Metabolic Activation: NONE, Method: PREINCUBATION): inactive; negative
mutagenic call (Test System: E.COLI, Strain/Indicator: WP2UVRA, Metabolic Activation: RAT LIVER S-9, PHENOBARBITAL AND BETA-NAPHTHOFLAVONE, Method: PREINCUBATION): inactive; negative

CCOC(=O)CNC(=O)C=[N+]=[N-]
mutagenic call [7]: active; positive
mutagenic call (Test System: UDS RODENT PRIMARY CELLS, Strain/Indicator: THY INCORP (NON-S-PHASE), Metabolic Activation: NONE, Method: AUTORADIOGRAPHY): active; positive

CCCCCCC[N+](=O)[O-]
mutagenic call (Test System: UDS RAT HEPATOCYTES, Strain/Indicator: THY INCORP, Metabolic Activation: NONE): inactive; negative
